Measured values from US20120083522A1, “MODULATION OF INFLAMMATORY RESPONSES BY FACTOR XI” (Isis Pharmaceuitcals, inc., priority 2009, published 2012).
e = 2'-O-(2-methoxyethyl) (MOE); d = 2'-deoxy (DNA)

Assays:
human Factor XI mRNA [1] = assay: Dose-dependent antisense inhibition in HepG2 cells, lipofectin (Example 2); format: cell-based; conditions: approximately 16 hours
Method: Cells were plated at a density of 10,000 cells per well and transfected using lipofectin reagent with 9.375 nM, 18.75 nM, 37.5 nM, 75 nM, and 150 nM concentrations of antisense oligonucleotide, as specified in Table 3. After a treatment period of approximately 16 hours, RNA was isolated from the cells and Factor XI mRNA levels were measured by quantitative real-time PCR. Human Factor XI primer probe set RTS 2966 (forward sequence: […], incorporated herein as SEQ ID NO: 3; reverse sequence: […], incorporated herein as SEQ ID NO: 4; probe sequence: TTGTCTACTGAAGCACACCCAAACAGGGAX, wherein X is the fluorophore, incorporated herein as SEQ ID NO: 5) was used to measure mRNA levels. Factor XI mRNA levels were adjusted according to total RNA content, as measured by RIBOGREEN®. Results are presented as percent inhibition of Factor XI, relative to untreated control cells.

human Factor XI mRNA [2] = assay: Antisense inhibition in HepG2 cells by microwalk gapmers, 8,000 nM, electroporation (Example 14); format: cell-based; conditions: HepG2 cells, 8,000 nM
In short: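 Percent reduction of Factor XI transcript, relative to untreated controls, by real-time PCR with RIBOGREEN normalisation. Readout taken about 24 h after electroporating HepG2 cells with 8,000 nM oligonucleotide. Gapmers are 5-10-5, 5-8-5 or 6-8-6 MOE wings, phosphorothioate backbone.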

[3] = design: species or system Sprague-Dawley rats; conditions: rat, in vivo, sc, 20 mg/kg
Method: The concentration of the full-length oligonucleotide as well as the total oligonucleotide concentration (including the degraded form) was measured. The method used is a modification of previously published methods (Leeds et al., 1996; Geary et al., 1999) which consist of a phenol-chloroform (liquid-liquid) extraction followed by a solid phase extraction. An internal standard (ISIS 355868, a 27-mer 2′-O-methoxyethyl modified phosphorothioate oligonucleotide, […], designated herein as SEQ ID NO: 270) was added prior to extraction. […] The results are presented in Tables 98 and 99, expressed as μg/g liver or kidney tissue.

human Factor XI mRNA [4] = assay: Antisense inhibition in HepG2 cells by microwalk gapmers, 75 nM, lipofectin (Example 3); format: cell-based; conditions: HepG2 cells, 75 nM, oligonucleotides targeted to nucleobases 1275 to 1318 of SEQ ID NO: 1
In short: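 HepG2 cells (10,000 per well) were transfected with 75 nM gapmer using lipofectin and treated for about 24 h. Factor XI mRNA was quantified by real-time PCR, normalized to RiboGreen total RNA and expressed as percent inhibition versus untreated controls.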

human Factor XI mRNA [5] = assay: Dose-dependent inhibition in HepG2 cells, lipofectin (Example 4); format: cell-based; conditions: 16 hours
In short: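 Read-out was percent inhibition of Factor XI mRNA relative to untreated controls, by qRT-PCR (RTS 2966) adjusted for RIBOGREEN-measured total RNA. Cells received antisense oligonucleotide at 9.375 to 75 nM (four levels) via lipofectin. Treatment lasted approximately 16 hours, with plating at 10,000 cells per well.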

human Factor XI mRNA [6] = assay: Dose-dependent inhibition in HepG2 cells, electroporation (Example 4); format: cell-based; conditions: 16 hours
In short: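 HepG2 cells electroporated with 0.7, 2.2, 6.7 or 20 μM antisense gapmer and harvested after ~16 h. Factor XI mRNA quantified by qRT-PCR (primer probe set RTS 2966), normalised to total RNA (RIBOGREEN). Reported as percent inhibition versus untreated control cells.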

human Factor XI mRNA [7] = assay: Dose-dependent inhibition and IC50 in HepG2 cells, electroporation (Example 15); format: cell-based
Method: Cells were plated at a density of 20,000 cells per well and transfected using electroporation with 123.46 nM, 370.37 nM, 1,111.11 nM, 3,333.33 nM and 10,000 nM concentrations of antisense oligonucleotide, as specified in Table 52. After a treatment period of approximately 16 hours, RNA was isolated from the cells and Factor XI mRNA levels were measured by quantitative real-time PCR. Human Factor XI primer probe set RTS 2966 was used to measure mRNA levels. Factor XI mRNA levels were adjusted according to total RNA content, as measured by RIBOGREEN. Results are presented as percent inhibition of Factor XI, relative to untreated control cells.

[8] = Tolerability in CD1 mice: liver function (Example 17); format: in vivo; design: Albumin: unit not given here; conditions: plasma, 50 mg/kg s.c. twice a week
[9] = Tolerability in CD1 mice: kidney function (Example 17); format: in vivo; conditions: plasma, 50 mg/kg s.c. twice a week
Text: Results are presented in Tables 62 and 63, expressed in mg/dL.

[10] = Tolerability in CD1 mice: hematology assays (Example 17); format: in vivo; conditions: for lymphocyte count / monocyte count / neutrophil count: percent of total blood cell count; for HCT / MCH / MCHC / MCV / WBC count: blood, 50 mg/kg s.c. twice a week
Method: A control group of five mice was injected subcutaneously with PBS for 2 weeks. All experimental groups (i.e. ASO treated mice at 2, 4, 6 weeks) were compared to the control group (i.e. PBS, 2 weeks).
Blood obtained from all mice groups were sent to Antech Diagnostics for hematocrit (HCT), mean corpuscular volume (MCV), mean corpuscular hemoglobin (MCH), and mean corpuscular hemoglobin concentration (MCHC) measurements and analyses, as well as measurements of the various blood cells, such as WBC (neutrophils, lymphocytes, and monocytes), RBC, and platelets, and total hemoglobin content. Percentages given in the tables indicate the percent of total blood cell count.

[11] = Tolerability in Sprague-Dawley rats: liver function (Example 19); format: in vivo; conditions: plasma, 50 mg/kg s.c. twice per week for 6 weeks
Text: (§1) Urine samples were taken before the start of treatment.

[12] = Tolerability in Sprague-Dawley rats: kidney function (Example 19); format: in vivo; conditions: Sprague-Dawley rats, plasma, 50 mg/kg s.c. twice per week for 6 weeks
Text: as §1

[13] = Tolerability in Sprague-Dawley rats: hematology assays (Example 19); format: in vivo; conditions: 50 mg/kg s.c. twice per week for 6 weeks
Text: as §1

[14] = as above; format: in vivo; conditions: 50 mg/kg s.c. twice per week for 6 weeks; remark: listed apart in the source

In the case of “413481 (antisense GGTGCACAGTTTCTGGCAGG; sugars from the 5' end e5 d10 e5, backbone and methylation of C not given here) [compound 413481]”, the “percent inhibition of Factor XI” value (human Factor XI mRNA [1]; 9.375 nM) was 22%, the “percent inhibition of Factor XI” value (human Factor XI mRNA [1]; 18.75 nM) was 38% and the “percent inhibition of Factor XI” value (human Factor XI mRNA [1]; 37.5 nM) was 56%. The “percent inhibition of Factor XI” value (human Factor XI mRNA [1]; 75 nM) was 67%, the “percent inhibition of Factor XI” value (human Factor XI mRNA [1]; 150 nM) was 83% and the “Percent inhibition of human Factor XI mRNA levels” value (human Factor XI mRNA [2]) was 82%. For the same substance, the “Half-life in the liver and kidney” value [3] was 21 days.
In the case of “413482 (antisense GGACGGCATTGGTGCACAGT; sugars from the 5' end e5 d10 e5, backbone and methylation of C not given here) [compound 413482]”, the “percent inhibition of Factor XI” value (human Factor XI mRNA [1]; 9.375 nM) was 26%, the “percent inhibition of Factor XI” value (human Factor XI mRNA [1]; 18.75 nM) was 39% and the “percent inhibition of Factor XI” value (human Factor XI mRNA [1]; 37.5 nM) was 59%. For the same substance, the “percent inhibition of Factor XI” value (human Factor XI mRNA [1]; 75 nM) was 74%, the “percent inhibition of Factor XI” value (human Factor XI mRNA [1]; 150 nM) was 82% and the “% inhibition of human Factor XI mRNA levels” value (human Factor XI mRNA [4]) was 89%. For the same substance, the “Percent inhibition of human Factor XI mRNA levels” value (human Factor XI mRNA [2]) was 88% and the “Half-life in the liver and kidney” value [3] was 20 days.
For “416856 (antisense GGCATTGGTGCACAGTTTCT; 5-10-5 gapmer, wing sugar chemistry not given here, further chemistry not given here) [compound 416856]”, the “% inhibition of human Factor XI mRNA levels” value (human Factor XI mRNA [4]) was 95%, the “percent inhibition of Factor XI mRNA, relative to untreated control cells” value (human Factor XI mRNA [5]; 9.375 nM) was 21% and the “percent inhibition of Factor XI mRNA, relative to untreated control cells” value (human Factor XI mRNA [5]; 18.75 nM) was 45%. The “percent inhibition of Factor XI mRNA, relative to untreated control cells” value (human Factor XI mRNA [5]; 37.5 nM) was 58%, the “percent inhibition of Factor XI mRNA, relative to untreated control cells” value (human Factor XI mRNA [5]; 75 nM) was 74% and the “percent inhibition of Factor XI mRNA, relative to untreated control cells” value (human Factor XI mRNA [6]; 0.7 μM) was 0%. The “percent inhibition of Factor XI mRNA, relative to untreated control cells” value (human Factor XI mRNA [6]; 2.2 μM) was 29%, the “percent inhibition of Factor XI mRNA, relative to untreated control cells” value (human Factor XI mRNA [6]; 6.7 μM) was 47% and the “percent inhibition of Factor XI mRNA, relative to untreated control cells” value (human Factor XI mRNA [6]; 20 μM) was 93%. The “Percent inhibition of human Factor XI mRNA levels” value (human Factor XI mRNA [2]) was 84%, the “percent inhibition of Factor XI mRNA” value (human Factor XI mRNA [7]; electroporation, 123.47 nM) was 12% and the “percent inhibition of Factor XI mRNA” value (human Factor XI mRNA [7]; electroporation, 370.37 nM) was 23%. For the same substance, the “percent inhibition of Factor XI mRNA” value (human Factor XI mRNA [7]; electroporation, 1,111.11 nM) was 35%, the “percent inhibition of Factor XI mRNA” value (human Factor XI mRNA [7]; electroporation, 3,333.33 nM) was 59% and the “percent inhibition of Factor XI mRNA” value (human Factor XI mRNA [7]; electroporation, 10,000.0 nM) was 83%. For the same substance, the “Half-life in the liver and kidney” value [3] was 19 days.
Work on “ATGCCCTTCATGTCTAGGTC (all C 5-methyl, all phosphorothioate, sugars by position not given here; MOE gapmer) [ISIS 416826, 5-10-5 MOE gapmer]” yielded an ALT ([8]; 2 weeks) of 182 IU/L, an AST ([8]; 2 weeks) of 274 IU/L and an Albumin ([8]; 2 weeks) of 3.3. For the same substance, the Bilirubin ([8]; 2 weeks) was 0.39 mg/dL, the ALT ([8]; 4 weeks) was 126 IU/L and the AST ([8]; 4 weeks) was 156 IU/L. For the same substance, the Albumin ([8]; 4 weeks) was 3.4, the Bilirubin ([8]; 4 weeks) was 0.20 mg/dL and the ALT ([8]; 6 weeks) was 1954 IU/L. The AST ([8]; 6 weeks) was 1411 IU/L, the Albumin ([8]; 6 weeks) was 3.4 and the Bilirubin ([8]; 6 weeks) was 0.37 mg/dL. It also gave a BUN ([9]; 2 weeks) of 24 mg/dL, a creatinine ([9]; 2 weeks) of 0.15 mg/dL and a BUN ([9]; 4 weeks) of 34 mg/dL. It also gave a creatinine ([9]; 4 weeks) of 0.20 mg/dL, a BUN ([9]; 6 weeks) of 27 mg/dL and a creatinine ([9]; 6 weeks) of 0.15 mg/dL. The RBC count ([10]; 2 weeks) was 8 cells/pL, the hemoglobin content ([10]; 2 weeks) was 13.4 g/dL and the platelet count ([10]; 2 weeks) was 1498 cells/nL. It also gave a lymphocyte count ([10]; 2 weeks) of 70%, a monocyte count ([10]; 2 weeks) of 3% and a neutrophil count ([10]; 2 weeks) of 26%. For the same substance, the RBC count ([10]; 4 weeks) was 8 cells/pL, the hemoglobin content ([10]; 4 weeks) was 12.8 g/dL and the platelet count ([10]; 4 weeks) was 970 cells/nL. It also gave a lymphocyte count ([10]; 4 weeks) of 61%, a monocyte count ([10]; 4 weeks) of 5% and a neutrophil count ([10]; 4 weeks) of 33%. For the same substance, the RBC count ([10]; 6 weeks) was 7 cells/pL, the hemoglobin content ([10]; 6 weeks) was 11.0 g/dL and the platelet count ([10]; 6 weeks) was 645 cells/nL. The lymphocyte count ([10]; 6 weeks) was 67%, the monocyte count ([10]; 6 weeks) was 8% and the neutrophil count ([10]; 6 weeks) was 23%. For the same substance, the HCT ([10]; 2 weeks) was 47%, the MCH ([10]; 2 weeks) was 17 pg and the MCHC ([10]; 2 weeks) was 29%. It also gave an MCV ([10]; 2 weeks) of 56 fL, a WBC count ([10]; 2 weeks) of 5 cells/nL and an HCT ([10]; 4 weeks) of 41%. It also gave an MCH ([10]; 4 weeks) of 16 pg, an MCHC ([10]; 4 weeks) of 31% and an MCV ([10]; 4 weeks) of 52 fL. For the same substance, the WBC count ([10]; 4 weeks) was 6 cells/nL, the HCT ([10]; 6 weeks) was 37% and the MCH ([10]; 6 weeks) was 16 pg. It also gave an MCHC ([10]; 6 weeks) of 30%, an MCV ([10]; 6 weeks) of 53 fL and a WBC count ([10]; 6 weeks) of 8 cells/nL. It also gave an ALT [11] of 611 IU/L, an AST [11] of 104 IU/L and an Albumin [11] of 6 mg/dL. It also gave a Bilirubin [11] of 115 mg/dL, a BUN [12] of 25 mg/dL and a creatinine [12] of 6 mg/dL. The Lymphocytes [13] was 5%, the MCH ([13]; title says % control) was 3 pg and the Monocytes [14] was 7%. The Neutrophils [14] was 30%, the Platelets [14] was 11 10^3/μL and the RBC [14] was 5 pL⁻¹. It also gave a WBC [14] of 7 nL⁻¹, an HCT ([14]; title says % control) of 7% and a Hemoglobin ([14]; title says % control) of 7 g/dL. The MCHC ([14]; title says % control) was 4% and the MCV ([14]; title says % control) was 6 fL.
